Source: patent US20240050370A1, “TRIPLE STABILIZER SYSTEM” (Bayer Aktiengesellschaft, priority 2022, published 2024)

Test: Viscosity by rotational viscometry (MCR 302e, concentric cylinder)
Type: physicochemical
Details: 2 wt % HPC, 0.2 wt % anionic surfactant, PVPK12 0 to 16 wt %
Description: Viscosity was measured with rotational viscometry with a modular compact rheometer (MCR) 302e (Anton Paar). A concentric cylinder geometry was used. Shear rate was varied logarithmic from 0.1 1/s to 1000 1/s. 6 measurement points per decade were used. The measurement time was varied from 10 s for a shear rate of 0.1 1/s and is for 1000 1/s. Shear rate vs. Shear stress was plotted. The slope described the viscosity. The shear rate independent viscosity was evaluated, and the middle value was used.
Viscosity was measured with rotational viscometry with a modular compact rheometer (MCR) 302e (Anton Paar). A concentric cylinder geometry was used. Shear rate was varied logarithmic from 0.1 1/s to 1000 1/s. 6 measurement points per decade were used. The measurement time was varied form 10 s for a shear rate of 0.1 1/s and is for 1000 1/s.

Row | Impact of anionic surfactant on viscosity reduction induced by PVPK12 addition (FIG. 5) | Compound
1 | do not show a reduction of viscosity | C[C@H](CCC(=O)[O-])[C@H]1CC[C@H]2[C@@H]3CC[C@@H]4C[C@H](O)CC[C@]4(C)[C@H]3C[C@H](O)[C@]12C.[Na+] [Na-Deoxycholate]
2 | strongest impact | CCCCCCCCCCCCOS(=O)(=O)[O-].[Na+] [SDS, sodium dodecyl sulfate]
